Experimental data as given in patent publication US12349708B2, “Use and methods of 1,3-propanediol to improve taste and/or off-taste qualities” (Primient Covation LLC, priority 2019, dated 2025).
“Also recorded” adds a separate entry of the source.

Tests used:
[1] = tested on: experienced and trained panelist; assay: Sensorial description of energy drinks and additive solutions with propylene glycol or biologically-produced 1,3-propanediol (multi-sip-and-swallow taste method); details: for Sensorial Description: RT; for increase of sweetness equivalent: with prior DW sipping; for concentration yielding the most consistent reduction in unpleasant taste/masking off-tastes: in vivo; for taste quality of 5-hour ENERGY shots and Bang energy drink: included in 5-hour ENERGY shots and Bang energy drink; for overall tasting quality vs propylene glycol: three additive solutions; for tasting qualities vs propylene glycol: two additive malic acid and sucralose solutions;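 as to all read-outs here: propylene glycol or 1,3-propanediol added at 0.01, 0.1 or 1.0%, tasted by multi-sip-and-swallow in duplicate, compared with matching controls lacking either additive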
[2] = Taste of juices and yogurts with 1,3-propanediol; format: in vivo
[3] = Comparison of energy shot prototypes with and without caffeine and bioPDO (Example 7); format: in vivo, human; details: samples without caffeine
Experimental: • 1. Take 1st sip from a full 30 mL medicine cup, taste and swallow the 1st sample, wait 10 seconds, then take a 2nd sip and lock it into memory. Wait for 10 seconds. • 2. Proceed with 2nd sample. Taste 1st sip of the 2nd sample, wait for 10 seconds, and then use the 2nd sip to compare to the 2nd sip of the 1st sample. • 3. Rinse with DW and wait for approximately 15 seconds. Repeat step 2 for each if extra sampling needed, not to exceed four samples at a time.
Each paired sample evaluation was repeated in duplicate with at least a 10-minute break and a carbon-treated water rinse.
The following samples were prepared for this study: • 1. Existing Sample #3A (Energy shot prototype) without bioPDO. • 2. Existing Sample #3B (Energy shot prototype) with bioPDO. • 3. New Sample #4A with similar levels of sucralose and malic acid as Sample #3A, BUT without bioPDO and caffeine as an experimental sample. • 4. New Sample #4B with similar levels of sucralose, malic acid and bioPDO as Sample #3B, BUT without caffeine as an experimental sample. Results
This study was designed so it would be possible to directly identify any other ‘off-taste’ attribute. […] Below are the comparative sensorial evaluation results in Table 42 including their specific sample formulations, observations and results. Keywords of SUL, MA and CAF are sucralose, malic acid and caffeine, respectively.

[4] = tested on: experienced and trained panelist; assay: Sensorial comparison of energy shot prototypes at various malic acid and sucralose levels with and without bioPDO (Example 5); format: in vivo, human; details: 0.2% bioPDO; sucralose and malic acid lowered by 32% and 47%
Experimental: • 1. Take 1st sip from a full 30 mL medicine cup, taste and swallow the 1st sample, wait 10 seconds, then take a 2nd sip and lock it into memory. Wait for 10 seconds. • 2. Proceed with 2nd sample. Taste 1st sip of the 2nd sample, wait for 10 seconds, and then use the 2nd sip to compare to the 2nd sip (or 3rd sip) of the 1st sample.
Each paired sample evaluation was repeated in triplicate with at least a 10-minute break and a carbon-treated water rinse.
The theory is to try to establish a reduced amount (concentration) of malic acid to match its sourness intensity of our energy shot prototype w/bioPDO to the control, energy shot prototype without bioPDO. Secondly, if this adjustment of lowering the malic acid concentration results in increasing sweetness, an additional step will be performed to reduce the amount of sucralose until both sourness and sweetness taste match that of the control w/o bioPDO. Below are the comparative sensorial evaluation results in Tables 33-36 including their specific sample formulations, observations, and results. Keywords of SUL, MA and CAF are sucralose, malic acid, and caffeine, respectively.

[5] = PG samples tasted before PDO samples

OCCCO [PDO, 1,3-propanediol]
Sensorial Description ([1]; 0.01% PG or PDO in 79 ppm sucralose (5% SE) in distilled water): Same as 0.01% PG results.
Sensorial Description ([1]; 0.01% PG or PDO in 2,000 ppm sucralose in distilled water): (small sip): Similar results as 0.01% PG. Direct
Sensorial Description ([1]; 0.01% PG or PDO in 3,338 ppm caffeine in distilled water (caffeine shot)): (small sip): similar to Control #65.
Sensorial Description ([1]; 0.01% PG or PDO in 10,500 ppm malic acid and 2,000 ppm sucralose in distilled water): Little to no sweetness and sourness, similar
Sensorial Description ([1]; 0.01% PG or PDO in 10,500 ppm malic acid, 2,000 ppm sucralose, 3,338 ppm caffeine in distilled water): Significantly less sweet intensity, less and different
Sensorial Description ([1]; 0.01% PG or PDO in B vitamins at 5-hour Energy shot concentrations in distilled water): Slightly different from Control (upfront smooth-like)
Sensorial Description ([1]; 0.01% PG or PDO in Bang energy drink): Still slow onset sourness, less sweetness (more
Sensorial Description ([1]; 0.01% PG or PDO in Berry flavor in distilled water): No dry taste effect, slight less flavor.
Sensorial Description ([1]; 0.01% PG or PDO in Monster Energy Zero Ultra): Significantly less off-taste, still strong sweetness and
Sensorial Description ([1]; 0.01% PG or PDO in Monster Energy drink): Note: Loss of carbonation. No carbonic acid off-
Sensorial Description ([1]; 0.01% PG or PDO in NOS High Performance Energy Drink): Less Sweet, smoother, no off-taste, significant less
Sensorial Description ([1]; 0.01% PG or PDO in Orange 5-hour ENERGY shot (5HE Orange)): Not significantly less flavor, tasted better than
Sensorial Description ([1]; 0.01% PG or PDO in Red Bull Energy Drink): Better taste overall and less off taste than 0.01% PG,
Sensorial Description ([1]; 0.01% PG or PDO in Red Bull Sugar Free): Much better overall tasting quality, significantly less
Sensorial Description ([1]; 0.01% PG or PDO in Rockstar Original energy drink): Slight off-flavor, significantly less sourness, still
increase of sweetness equivalent ([1]; 0.01% in 2,000 ppm sucralose): ~45% more SE.
Sensorial Description ([1]; 0.1% PG or PDO in 238 ppm sucralose (10% SE) in distilled water): Still slightly more sweetness, thinner but still ~9-
Sensorial Description ([1]; 0.1% PG or PDO in 338 ppm caffeine in distilled water (caffeine drink)): Stronger bitterness intensity to medium level.
Sensorial Description ([1]; 0.1% PG or PDO in 2,000 ppm sucralose in distilled water): (small sip): Significantly improved sugar-like tasting
Sensorial Description ([1]; 0.1% PG or PDO in 3,338 ppm caffeine in distilled water (caffeine shot)): (small sip): similar to Control #65.
Sensorial Description ([1]; 0.1% PG or PDO in Bang energy drink): Significantly less sourness and sweetness, smoother,
Sensorial Description ([1]; 0.1% PG or PDO in Berry 5-hour ENERGY shot (5HE Berry)): Significantly better tasting quality than 0.1% PG,
Sensorial Description ([1]; 0.1% PG or PDO in Berry flavor in distilled water): Less dry than 0.01% PDO, slight less flavor.
Sensorial Description ([1]; 0.1% PG or PDO in Monster Energy Zero Ultra): More suitable tasting quality (less than 1% but more
Sensorial Description ([1]; 0.1% PG or PDO in Monster Energy drink): Note: Loss of carbonation. Similar to 0.01% PDO,
Sensorial Description ([1]; 0.1% PG or PDO in Red Bull Energy Drink): Note: Significant loss of carbonation. Still slight-
Sensorial Description ([1]; 0.1% PG or PDO in Red Bull Sugar Free): Flatter than 0.01% PDO, low-med flavor, low-med
increase of sweetness equivalent ([1]; 0.1% in 2,000 ppm sucralose): ~45% more SE.
taste effect at 1% (10,000 ppm) ([1]; 1% / 1.0% (10,000 ppm) in the compositions studied, listed as biologically-produced 1,3-propanediol): sometimes imparted a smoke and/or off-flavor; also recorded: yielded no further improvement in taste perception
Sensorial Description ([1]; 1.0% PG or PDO in 79 ppm sucralose (5% SE) in distilled water): Significant off-flavor note, chemical-like note,
Sensorial Description ([1]; 1.0% PG or PDO in 238 ppm sucralose (10% SE) in distilled water): Off-flavor, thinner-like or chemical-like note,
Sensorial Description ([1]; 1.0% PG or PDO in 338 ppm caffeine in distilled water (caffeine drink)): Off-flavor taste, delayed onset of bitterness.
Sensorial Description ([1]; 1.0% PG or PDO in 2,000 ppm sucralose in distilled water): (small sip): off-flavor chemical-like note (plastic-
Sensorial Description ([1]; 1.0% PG or PDO in 3,338 ppm caffeine in distilled water (caffeine shot)): (small sip): similar to Control #65, slightly
Sensorial Description ([1]; 1.0% PG or PDO in 10,500 ppm malic acid and 2,000 ppm sucralose in distilled water): Weak off-flavor across the taste, similar qualities
Sensorial Description ([1]; 1.0% PG or PDO in 10,500 ppm malic acid in distilled water): No off-flavor for sure, however possible Invisible-
Sensorial Description ([1]; 1.0% PG or PDO in 10,500 ppm malic acid in distilled water, listed as biologically-produced 1,3-propanediol): did not present any expected off-flavor
Sensorial Description ([1]; 1.0% PG or PDO in 10,500 ppm malic acid, 2,000 ppm sucralose, 3,338 ppm caffeine in distilled water): Very weak off-flavor note, thinner sourness, less
Sensorial Description ([1]; 1.0% PG or PDO in B vitamins at 5-hour Energy shot concentrations in distilled water): Slight-medium off-flavor note,
Sensorial Description ([1]; 1.0% PG or PDO in Bang energy drink): Slight and low off-flavor at middle tasting time,
Sensorial Description ([1]; 1.0% PG or PDO in Berry flavor in distilled water): Moderate chemical-like off-flavor at later
Sensorial Description ([1]; 1.0% PG or PDO in Monster Energy Zero Ultra): Smoother, medium off flavor at middle tasting
Sensorial Description ([1]; 1.0% PG or PDO in Monster Energy drink): Note: Little carbonation. Significant undescribed
Sensorial Description ([1]; 1.0% PG or PDO in NOS High Performance Energy Drink): Off-flavor in middle taste, no or low sourness, not
Sensorial Description ([1]; 1.0% PG or PDO in Orange 5-hour ENERGY shot (5HE Orange)): Slight or faint off-flavor in background (non-
Sensorial Description ([1]; 1.0% PG or PDO in Red Bull Energy Drink): Note: significantly less or no carbonation. Significant
reduction in unpleasant taste or masking of off-taste ([1]; 2,000 ppm, 238 ppm, or 70 ppm sucralose in distilled water): No reduction in unpleasant taste, or masking of off-taste
reduction of unpleasant taste / masking of bitterness ([1]; 3,382 ppm or 338 ppm caffeine in distilled water): did not reduce the unpleasant taste, or mask the bitterness
maximum useful concentration ([1]; across a broad range of food, beverage, and confection compositions): 0.5%
taste modulation of B vitamins ([1]; aqueous B vitamins at concentrations comparable to 5-hour ENERGY shots): did not positively modulate
modulation of berry flavor ([1]; berry flavor in distilled water): Neither biologically-produced 1,3-propanediol, nor propylene glycol modulated the flavor
concentration yielding the most consistent reduction in unpleasant taste/masking off-tastes ([1]; listed as bioPDO): ca. 0.1%
concentration yielding the most consistent reduction in unpleasant taste/masking off-tastes ([1]; listed as biologically-produced 1,3-propane diol): about 0.1%
taste quality of 5-hour ENERGY shots and Bang energy drink ([1]; listed as Biologically-produced 1,3-propanediol): improved the taste quality
taste quality of 5-hour ENERGY shots and Bang energy drink ([1]; listed as biologically-produced 1,3-propanediol): positive taste modulation effect of PDO
taste modulation or sour masking ([1]; malic acid at 10,500 ppm in distilled water): no positive taste modulation or sour masking effect
taste modulation of three additive solution ([1]; malic acid, sucralose and caffeine at 5-hour ENERGY concentrations in distilled water, compared to solution with propylene glycol): positive taste modulation, or a reduction of unpleasant tastes
taste modulation of single additive solutions ([1]; separate caffeine, malic acid, and sucralose solutions at mega-dose levels, listed as biologically-produced 1,3-propanediol): did not positively modulate the taste or mask the bitter, off, or sour tastes; also recorded: neither propylene glycol, nor biologically-produced 1,3-propanediol modulated the taste
taste modulation of two additive solutions ([1]; solutions containing a blend of two taste additives): most positive taste modulation effect
overall tasting quality vs propylene glycol ([1]; PDO samples tasted before PG samples, similar levels): better overall tasting quality
overall tasting quality vs propylene glycol [1, 5]: no tasting quality differences
tasting qualities vs propylene glycol [1, 5]: tasted marginally better than the propylene glycol-containing samples
tasting qualities vs propylene glycol ([1]; direct comparison of PDO to PG): better tasting qualities than those with propylene glycol
taste modulation ([2]; Greek yogurt, with vs without): less bitter and sweeter
taste modulation ([2]; Vanilla yogurt, with vs without): less bitter and somewhat sweeter
taste modulation ([2]; cranberry juice): reduced both the bitterness and the sweetness
taste modulation ([2]; grapefruit juice): decrease the bitterness and increase the sweetness
taste modulation ([2]; orange juice, with vs without): less bitter and somewhat sweeter
modulation of sweet and sour intensities [3]: does not positively or negatively modulate the sweet and sour intensities
taste quality effect of 0.2% addition [4]: failed to further improve
